Patent US5514668A (priority 1989, dated 1996)
“Also recorded” adds a separate entry of the source.

How the values were obtained:
mice = experiment: Toxicity on intravenous injection in mice
Protocol: The content of free crown ether compound in this product was not analysed.
(§1) The product A was at a concentration of 1% injected intraveneously in mice which each received a dose of 0.4 ml corresponding to 32×10^-4 g crown ether.
The product B was tested similarily but at a concentration of 10%. The dose was here 0.4 ml corresponding to 6.0×10^-3 g crown ether compound. The content of free crown ether compound in this dose amounted to 1.2×10^-4 g.
Two series of comparison tests were also made with the crown ether monomer.
In the first test benzo-18-crown-6 was injected as aqueous solution having a concentration of 0.8% at a dose of 0.4 ml per animal, corresponding to 32×10^-4 g crown ether.
In the ether comparison test benzo-18-crown-6 was used at a concentration of 0.08%. Also here the dose was 0.4 ml corresponding to 3.2×10^-4 g crown ether.

Coccidia [1] = details: tissue culture; J. Med. Chem. 1983, 26, 590-592; cited from earlier work
Coccidia [2] = details: poultry, admixed in the fodder; cited from earlier work
[3] = Elimination in urine of mice (UV analysis); format: in vivo; details: i.v., 1% solution, 0.4 ml
Protocol: as §1

[4] = Elimination of Cs^137 from blood of mice into urine; format: in vivo
Protocol: Tests were performed at Fors.o slashed.gsstation Ris.o slashed., Department of Health, Roskilde, Denmark, to investigate the ability of the dextran-crown ether compounds to remove radioactive cesium, Cs^137, from the blood of mice.
Three tests were run, each using five mice.
As basis solution for use as injection liquid or for use as basis for the preparation of such, an aqueous 0,9% sodium chloride solution was used containing Cs^137 in an amount corresponding to 3000 Bq/ml.
In each test the mice were kept in a cage, the bottom of which was a net below which a funnel was arranged for collecting the urine of the mice. After each collection of urine the bottom was flushed with water, and urine plus flushing water were collected and diluted with water to 20 ml before the radioactivity were determined by means of a Geiger counting apparatus.
By this test each mouse was injected with 0,1 ml af the basis solution and thus received 300 Bq Cs^137. The time for this injection, below designated to, was 11:30 .
After one hour each mouse was injected with 0,4 ml of a 6 w/v-% aqueous solution of the dextran-O-carbonylbenzo-18-crown-6-product produced according to Example 1, corresponding to 24 mg of this product per mouse.
Collection of urine with subsequent determination of radioactivity was initiated one hour and […], corresponding to 1.35 hours after to and was continued as it appears from Table I below.
47.81 hours after to a further injection of 0.5 ml of the 6%'s dextran-crown ether-solution was made on each mouse and the collection of urine and determination of radioactivity therein were continued.
At this test the injection solution was a mixture of 2 ml of the above mentioned Cs^137 -containing solution and 8 ml of the dextran-crown ether solution used in Test I.
Each mouse was injected with 0,5 ml of the mixture and thus received 300 Bq Cs^137 and 24 mg dextran-crown ether. Collection of urine and further crown ether injection (0,5 ml 6% solution) was made as in Test 1 as it appears from Table II below.
By this comparison test the injection solution was a mixture of 2 ml of the above mentioned basis solution containing 3000 Bq/ml Cs^137 and 8 ml aqueous 0,9% by weight NaCl-solution. Each mouse was injected using […] of the mixture and thus received 300 Bq Cs^137.

[5] = tested on: foot- and -mouth disease virus, type A; details: mouse, in vivo
[6] = Complexing capability, diffusion test using a membrane cell; format: binding; details: aqueous, alcohol containing solution; relative to free crown ether
[7] = tested on: foot-and-mouth desease virus, type C, Turup; parameters: species or system Turup; Guinea pigs; details: guinea pig, in vivo
[8] = tested on: foot-and-mouth desease virus, type A, Holland; parameters: species or system Holland; Guinea pigs; details: guinea pig, in vivo, sc
[9] = Complexing capability, cesium binding in dialysis hose
Protocol: The resulting solution was transferred to a hose for dialysis having a pore radius of approximately 1.5 nm.
After 12 hours samples taken from the liquid inside the dialysis hose and from the liquid outside the hose in the graduated glass, resp., were measured by means of a gamma counter operating at 0.66 MeV, to determine the ratio of the Cs concentration inside the dialysis hose to the Cs concentration outside the hose. On the basis of these determinations the corresponding amounts of Cs in the two liquids were calculated.

[10] = 0.08% solution, 0.4 ml, 3.2×10^-4 g crown ether

c1ccc2c(c1)OCCOCCOCCOCCOCCO2 [benzo-18-crown-6]
duration of heavy convulsions (mice; [10]): approximately 15 minutes | symptoms and survival (mice; [10]): heavy convulsions appeared; also recorded: the animals survived | reaction compared with product (B) (mice; 3.2×10^-4 g pure compound versus product (B) containing 1.2×10^-4 g unbound): significantly heavier reaction | death of animals (mice; aqueous solution 0.8%, 0.4 ml, 32×10^-4 g crown ether): The animals died immediately before the injection was completed

c1ccc2c(c1)OCCOCCOCCOCCOc1ccccc1OCCOCCOCCOCCO2 [dibenzo-30-crown-10]
anti-coccidial activity (Coccidia [1]): have an anti-coccocidal activity in tissue culture tests | in vivo anti-coccidial effect (Coccidia [2]): no in vivo effect was demonstrated

T40-Dextran-O-carbonylbenzo-18-crown-6 [product A]
signs of illness (mice; i.v., 1% solution, 0.4 ml): did not show any sign of illness | time after which compound was excreted substantially completely in urine [3]: 3 to 5 h

T40-Dextran-O-carbonylbenzo-18-crown-6 [product B]
symptoms after injection (mice; i.v., 10% solution, 0.4 ml): subdued after having received this dose and had bristled furs; also recorded: thereafter they did not shown any symptoms | duration of being subdued with bristled furs (mice; i.v., 10% solution, 0.4 ml, several animals): approximately 30 minutes

dextran-O-carbonylbenzo-18-crown-6 [dextran-crown ether]
radioactivity in urine + flushing water ([4]; Test 1, 1.35 hours after to, 24 mg per mouse given one hour after Cs^137): 6978 counts | radioactivity in urine + flushing water ([4]; Test 1, 4.63 hours after new to (second injection)): 3533 counts | radioactivity in urine + flushing water ([4]; Test 1, 4.83 hours after to): 3684 counts | radioactivity in urine + flushing water ([4]; Test 1, 8.67 hours after new to (second injection)): 2937 counts | radioactivity in urine + flushing water ([4]; Test 1, 8.88 hours after to): 8280 counts | radioactivity in urine + flushing water ([4]; Test 1, 20.07 hours after to): 17001 counts | radioactivity in urine + flushing water ([4]; Test 1, 22.28 hours after new to (second injection)): 6391 counts | radioactivity in urine + flushing water ([4]; Test 1, 44.92 hours after to): 17368 counts | radioactivity in urine + flushing water ([4]; Test 1, 47.78 hours after to): 2213 counts | Counts, total (accumulated) ([4]; Test 1, time 1.35): 6978 counts | Counts, total (accumulated) ([4]; Test 1, time 4.83): 10662 counts | Counts, total (accumulated) ([4]; Test 1, time 20.07): 35943 counts | Counts, total (accumulated) ([4]; Test 1, time 44.92): 53311 counts | Counts, total (accumulated) ([4]; Test 1, time 47.78): 55524 counts | Counts, total (accumulated) ([4]; Test 1, time 52.41): 59057 counts | Counts, total (accumulated) ([4]; Test 1, time 56.45): 61994 counts | Counts, total (accumulated) ([4]; Test 1, time 67.06): 68385 counts | radioactivity in urine + flushing water ([4]; Test 2, 0.87 hours after to, 24 mg per mouse injected in mixture with Cs^137): 4498 counts | radioactivity in urine + flushing water ([4]; Test 2, 4.33 hours after new to (second injection)): 3659 counts | radioactivity in urine + flushing water ([4]; Test 2, 4.62 hours after to): 11634 counts | radioactivity in urine + flushing water ([4]; Test 2, 8.40 hours after new to (second injection)): 3222 counts | radioactivity in urine + flushing water ([4]; Test 2, 8.65 hours after to): 8566 counts | radioactivity in urine + flushing water ([4]; Test 2, 19.82 hours after to): 16805 counts | radioactivity in urine + flushing water ([4]; Test 2, 22.08 hours after new to (second injection)): 4966 counts | radioactivity in urine + flushing water ([4]; Test 2, 44.65 hours after to): 12901 counts | radioactivity in urine + flushing water ([4]; Test 2, 47.53 hours after to): 2728 counts | Counts, total (accumulated) ([4]; Test 2, time 0.87): 4498 counts | Counts, total (accumulated) ([4]; Test 2, time 8.65): 24698 counts | Counts, total (accumulated) ([4]; Test 2, time 19.82): 41503 counts | Counts, total (accumulated) ([4]; Test 2, time 44.65): 54411 counts | Counts, total (accumulated) ([4]; Test 2, time 47.53): 57139 counts | Counts, total (accumulated) ([4]; Test 2, time 51.86): 60798 counts | Counts, total (accumulated) ([4]; Test 2, time 55.93): 64020 counts | Counts, total (accumulated) ([4]; Test 2, time 69.53): 68986 counts | speed of excretion of Cs^137 after the second injection ([4]; approximately 8 hours after second injection): somewhat increased speed of excretion | more radioactive Cs excreted than in comparison Test 3 ([4]; approximately 70 hours, Tests 1 and 2 versus Test 3): approximately 17% | speed of elimination of Cs^137 ([4]; first 5-8 hours after the first injection): significantly increased | effect on viral activity [5]: impedes the viral activity | significance of titre difference versus virus control [5]: not significant | capability of complexing metals, such as sodium ions [6]: has been maintained | antiviral activity [7]: exhibited an antiviral activity at all three days | reduction of the number of blisters [8]: a reduction of the number of blisters was obtained

dextran-hydroxyethylbenzo-18-crown-6
capability of catching and binding cesium ions [9]: substantial capability of catching and binding cesium ions | Cs in liquid inside the hose ([9]; after 12 h): 658 µg | Cs in liquid outside the hose ([9]; after 12 h): 1362 µg | Cs conc. inside hose/Cs conc. outside hose ([9]; after 12 h, gamma counter): 1.2 | Cs conc. inside hose/Cs conc. outside hose ([9]; initially): 1 | Cs in liquid inside the hose ([9]; initially): 520 µg | Cs in liquid outside the hose ([9]; initially): 1500 µg
